ChEMBL document CHEMBL1201862, “PubChem BioAssay data set” (2004)
The source made the active and inactive calls.

Key:
[1] = target: Nonstructural protein 1 (Influenza A virus, UniProt Q194T2); type: functional, Influenza A virus (A/California/07/2009(H1N1))
[2] = target: Matrix metalloproteinase-14 (Homo sapiens, UniProt P50281); experiment: Dose Response confirmation of uHTS hits for a small molecule inhibitors of MT1-MMP activation in a fluorescence assay set 2.; type: functional
[3] = system: HeLa; experiment: viability loss in HeLa cells – cell-based, 24 h, cherry-picked samples, cytotoxicity control, dose response (AID 504726); type: functional; settings: Homo sapiens;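 further: potency for cytotoxicity as loss of luminescence signal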
[4] = viability loss in HeLa cells – cytotoxicity control for MgcRacGAP inhibitor project, dose response (AID 624300); type: functional
[5] = target: T1, Caspase-6 (Homo sapiens, UniProt P55212); experiment: inhibition of CASP6 peptide cleavage – biochemical, VEID-R110 fluorescence, cherry-pick, dose response (AID 720632)
T1 sequence (P55212 whole entry): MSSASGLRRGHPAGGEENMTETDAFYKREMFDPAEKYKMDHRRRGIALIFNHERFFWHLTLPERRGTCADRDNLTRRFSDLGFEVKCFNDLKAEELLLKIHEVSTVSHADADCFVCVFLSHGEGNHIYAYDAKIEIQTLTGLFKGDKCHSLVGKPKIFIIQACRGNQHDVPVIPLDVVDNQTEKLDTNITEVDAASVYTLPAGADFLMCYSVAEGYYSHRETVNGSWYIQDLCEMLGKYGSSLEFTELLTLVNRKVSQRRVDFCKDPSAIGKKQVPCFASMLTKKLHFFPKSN

[6] = target: T2, Histone-lysine N-methyltransferase NSD2 (Homo sapiens, UniProt O96028); type: biochemical
T2 sequence (O96028 whole entry): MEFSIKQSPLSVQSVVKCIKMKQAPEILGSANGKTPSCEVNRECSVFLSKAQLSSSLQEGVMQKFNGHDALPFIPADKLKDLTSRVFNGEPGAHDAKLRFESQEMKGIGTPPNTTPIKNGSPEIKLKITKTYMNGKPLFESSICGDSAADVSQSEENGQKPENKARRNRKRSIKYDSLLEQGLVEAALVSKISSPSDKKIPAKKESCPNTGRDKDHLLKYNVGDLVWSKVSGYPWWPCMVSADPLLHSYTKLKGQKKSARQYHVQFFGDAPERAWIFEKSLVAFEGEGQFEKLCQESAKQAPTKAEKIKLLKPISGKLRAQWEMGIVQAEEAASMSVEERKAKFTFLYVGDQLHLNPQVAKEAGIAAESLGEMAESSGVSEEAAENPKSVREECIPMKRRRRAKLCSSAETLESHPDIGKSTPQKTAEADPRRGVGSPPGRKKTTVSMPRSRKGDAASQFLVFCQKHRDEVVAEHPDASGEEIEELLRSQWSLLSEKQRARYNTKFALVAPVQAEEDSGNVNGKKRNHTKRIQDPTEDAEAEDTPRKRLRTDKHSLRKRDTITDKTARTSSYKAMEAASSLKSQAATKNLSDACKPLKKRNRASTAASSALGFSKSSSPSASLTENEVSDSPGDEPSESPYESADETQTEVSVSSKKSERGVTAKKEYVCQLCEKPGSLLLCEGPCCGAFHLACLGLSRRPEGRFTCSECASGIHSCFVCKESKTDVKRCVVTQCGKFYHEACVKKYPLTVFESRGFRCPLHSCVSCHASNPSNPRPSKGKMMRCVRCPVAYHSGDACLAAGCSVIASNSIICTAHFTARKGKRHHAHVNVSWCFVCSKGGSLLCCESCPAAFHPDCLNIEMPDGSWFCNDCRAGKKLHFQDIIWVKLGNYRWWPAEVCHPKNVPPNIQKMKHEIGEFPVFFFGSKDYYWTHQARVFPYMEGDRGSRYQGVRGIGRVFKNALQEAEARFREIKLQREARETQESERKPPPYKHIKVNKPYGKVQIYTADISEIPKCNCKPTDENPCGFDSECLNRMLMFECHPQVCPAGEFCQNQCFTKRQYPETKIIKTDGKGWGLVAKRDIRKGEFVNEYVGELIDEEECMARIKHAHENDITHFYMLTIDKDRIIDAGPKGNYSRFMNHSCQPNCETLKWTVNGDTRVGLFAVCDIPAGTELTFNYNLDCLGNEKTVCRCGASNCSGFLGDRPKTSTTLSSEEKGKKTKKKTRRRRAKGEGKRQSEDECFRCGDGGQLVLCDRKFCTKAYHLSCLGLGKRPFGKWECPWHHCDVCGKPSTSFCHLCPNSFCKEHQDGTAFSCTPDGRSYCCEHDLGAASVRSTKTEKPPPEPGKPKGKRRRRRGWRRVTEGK

[7] = target: T3, ORF 73 (Human herpesvirus 8, UniProt O40947); experiment: KSHV LANA DNA-binding disruption – biochemical, fluorescence polarization, cherry-picked samples, dose response (AID 504725); design: species or system Human gammaherpesvirus 8;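 further: fluorescence polarization of a labeled DNA duplex reporting LANA DNA binding; potency is for inhibitors that block LANA binding to the DNA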
T3 sequence (O40947 whole entry): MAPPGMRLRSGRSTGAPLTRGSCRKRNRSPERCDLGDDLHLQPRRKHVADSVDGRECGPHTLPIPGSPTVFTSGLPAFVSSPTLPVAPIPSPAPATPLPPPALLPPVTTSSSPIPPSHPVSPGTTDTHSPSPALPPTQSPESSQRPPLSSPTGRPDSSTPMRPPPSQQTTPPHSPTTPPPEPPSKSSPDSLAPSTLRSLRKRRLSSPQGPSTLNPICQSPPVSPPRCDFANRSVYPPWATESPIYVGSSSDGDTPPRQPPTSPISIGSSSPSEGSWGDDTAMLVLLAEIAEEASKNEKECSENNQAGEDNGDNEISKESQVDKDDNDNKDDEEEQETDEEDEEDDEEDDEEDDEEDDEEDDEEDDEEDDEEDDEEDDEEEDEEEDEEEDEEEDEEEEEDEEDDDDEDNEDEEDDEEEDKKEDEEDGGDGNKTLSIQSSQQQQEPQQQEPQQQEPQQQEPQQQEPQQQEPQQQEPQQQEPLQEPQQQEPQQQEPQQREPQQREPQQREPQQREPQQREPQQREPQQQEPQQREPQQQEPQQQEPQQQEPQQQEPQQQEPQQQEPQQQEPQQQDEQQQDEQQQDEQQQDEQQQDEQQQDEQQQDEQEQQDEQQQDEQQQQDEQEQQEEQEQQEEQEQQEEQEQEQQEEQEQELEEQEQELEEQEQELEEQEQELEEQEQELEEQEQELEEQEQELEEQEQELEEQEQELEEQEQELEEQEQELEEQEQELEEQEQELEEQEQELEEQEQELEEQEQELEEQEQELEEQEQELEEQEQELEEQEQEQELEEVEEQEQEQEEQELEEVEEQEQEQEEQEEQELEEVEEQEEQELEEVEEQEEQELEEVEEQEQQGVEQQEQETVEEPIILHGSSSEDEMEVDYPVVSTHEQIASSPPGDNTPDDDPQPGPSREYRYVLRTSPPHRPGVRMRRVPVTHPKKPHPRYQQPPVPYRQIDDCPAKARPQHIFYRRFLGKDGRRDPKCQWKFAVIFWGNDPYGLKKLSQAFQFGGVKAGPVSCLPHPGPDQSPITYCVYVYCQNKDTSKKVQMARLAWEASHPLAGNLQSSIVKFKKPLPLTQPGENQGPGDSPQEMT

[8] = target: T4, Rac GTPase-activating protein 1 (Homo sapiens, UniProt Q9H0H5); experiment: blockers of MgcRacGAP-driven Rac1 GTP hydrolysis – biochemical, ADP Hunter fluorescence, primary and confirmatory, confirmation (AID 624330); type: functional
T4 sequence (Q9H0H5 whole entry): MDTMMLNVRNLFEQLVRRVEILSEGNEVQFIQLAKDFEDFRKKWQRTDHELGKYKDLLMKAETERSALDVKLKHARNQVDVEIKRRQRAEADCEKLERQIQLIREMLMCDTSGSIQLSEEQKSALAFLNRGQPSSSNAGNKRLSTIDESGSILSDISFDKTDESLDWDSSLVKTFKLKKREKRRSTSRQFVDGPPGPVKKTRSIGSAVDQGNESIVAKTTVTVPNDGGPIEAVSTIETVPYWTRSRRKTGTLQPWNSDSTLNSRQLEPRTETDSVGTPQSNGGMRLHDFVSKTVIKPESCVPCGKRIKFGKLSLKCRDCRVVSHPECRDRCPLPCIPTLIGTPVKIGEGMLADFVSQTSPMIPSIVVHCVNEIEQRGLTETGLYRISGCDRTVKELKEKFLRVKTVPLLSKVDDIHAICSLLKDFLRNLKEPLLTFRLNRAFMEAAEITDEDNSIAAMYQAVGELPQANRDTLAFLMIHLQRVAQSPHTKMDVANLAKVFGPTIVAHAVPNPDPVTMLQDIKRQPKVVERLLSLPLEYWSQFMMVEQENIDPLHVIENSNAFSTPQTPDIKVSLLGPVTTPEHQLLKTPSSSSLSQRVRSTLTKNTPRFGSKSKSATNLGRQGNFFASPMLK

[9] = target: Metabotropic glutamate receptor 3 (Rattus norvegicus, UniProt P31422); experiment: inhibition of rat mGlu3 glutamate signaling – HEK/GIRK cells, thallium flux, dose response (AID 651839); type: functional
[10] = Mycobacterium tuberculosis BioA enzyme inhibitor Measured in Biochemical System Using Plate Reader - 2163-02_Inhibitor_Dose_DryPowder_Activity.
[11] = EF1alpha-driven Renilla reporter with control 3'UTR suppression – Clone20-Shn3RL cells, dual-Glo, cherry-pick, set 2, counter-screen for Shn3 3'UTR targeting project, dose response (AID 720724); type: functional, cell-based; settings: Dual-Go Shn3RL
[12] = Shn3 3'UTR reporter signal decrease – cell-based, Clone20 osteoblasts, firefly luciferase, cherry-pick, set 2, Schnurri-3 inhibitor project, dose response (AID 720490); type: functional;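 further: actives lower the luminescence signal as inhibitors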
[13] = general mammalian cell viability loss – inhibitor set, cherry-pick, set 2, cytotoxicity control for miR-122 modulator project, dose response (AID 720697); type: functional, cell-based
[14] = reduction of Shn3 3'UTR-driven luciferase in osteoblasts – cell-based, Clone20 osteoblasts, firefly luciferase, cherry-picked, dose response (AID 624132); type: functional;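 further: firefly luciferase luminescence from reporter carrying the Shn3 3'UTR in osteoblasts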
[15] = viability of HCT116 lacking mutant beta-catenin – cell-based, human colon tumor, dose response (AID 1045); type: functional;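 further: HCT116 colon tumor cells with beta catenin knocked out; cells exposed to compound for 60 hours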
[16] = viability of PTEN-deleted HCT116 cells – cell-based, HCT116 PTEN knockout, dose response (AID 1047); type: functional;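 further: HCT116 colon tumor cells with PTEN knocked out; cells exposed to compound for 60 hours before readout; potency for loss of cell viability measured by luminescence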
[17] = loss of viability in HepG2 cells – cell-based, CellTiter-Glo, cherry-picked, cytotoxicity control for Shn3 inhibitor project, dose response (AID 624134); type: functional
[18] = target: T5, Ubiquitin-conjugating enzyme E2 N (Homo sapiens, UniProt P61088); type: functional;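 further: Dose-response confirmation in a TR-FRET assay detecting UBC13-driven polyubiquitin chain formation, inhibition measured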
T5 sequence (P61088 whole entry): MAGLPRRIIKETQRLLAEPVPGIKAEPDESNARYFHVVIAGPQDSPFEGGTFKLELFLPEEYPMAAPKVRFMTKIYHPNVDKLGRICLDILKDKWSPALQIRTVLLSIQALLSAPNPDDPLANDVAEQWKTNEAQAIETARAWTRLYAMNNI

[19] = system: INS1; experiment: INS-1E survival protection against cytokine death – cell-based, luminescence, retest, dose response (AID 449756); type: functional; settings: Rattus norvegicus;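 further: cell death triggered by IL-1 beta plus TNF-alpha plus IFN-gamma mixture; protective hits raise ATP signal compared with cytokine alone wells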
[20] = general mammalian cell viability loss – activator set, cherry-pick, cytotoxicity control for miR-122 modulator project, dose response (AID 720690); type: functional, cell-based;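 further: HEK293T human cells scored for general mammalian cytotoxicity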
[21] = non-specific 3'UTR reporter inhibition in Clone20-Shn3RL – cell-based, Renilla luciferase, cherry-picked, counter-screen for Shn3 inhibitor project, dose response (AID 624133); type: functional

Chain of Nonstructural protein 1 (Q194T2 whole entry): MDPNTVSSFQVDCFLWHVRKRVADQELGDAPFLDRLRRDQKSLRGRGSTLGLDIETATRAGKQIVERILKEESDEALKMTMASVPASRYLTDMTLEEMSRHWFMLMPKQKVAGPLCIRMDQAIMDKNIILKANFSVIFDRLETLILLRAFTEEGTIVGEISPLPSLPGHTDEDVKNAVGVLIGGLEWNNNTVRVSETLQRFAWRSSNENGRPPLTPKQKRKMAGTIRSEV
Chain of Metabotropic glutamate receptor 3 (P31422 whole entry): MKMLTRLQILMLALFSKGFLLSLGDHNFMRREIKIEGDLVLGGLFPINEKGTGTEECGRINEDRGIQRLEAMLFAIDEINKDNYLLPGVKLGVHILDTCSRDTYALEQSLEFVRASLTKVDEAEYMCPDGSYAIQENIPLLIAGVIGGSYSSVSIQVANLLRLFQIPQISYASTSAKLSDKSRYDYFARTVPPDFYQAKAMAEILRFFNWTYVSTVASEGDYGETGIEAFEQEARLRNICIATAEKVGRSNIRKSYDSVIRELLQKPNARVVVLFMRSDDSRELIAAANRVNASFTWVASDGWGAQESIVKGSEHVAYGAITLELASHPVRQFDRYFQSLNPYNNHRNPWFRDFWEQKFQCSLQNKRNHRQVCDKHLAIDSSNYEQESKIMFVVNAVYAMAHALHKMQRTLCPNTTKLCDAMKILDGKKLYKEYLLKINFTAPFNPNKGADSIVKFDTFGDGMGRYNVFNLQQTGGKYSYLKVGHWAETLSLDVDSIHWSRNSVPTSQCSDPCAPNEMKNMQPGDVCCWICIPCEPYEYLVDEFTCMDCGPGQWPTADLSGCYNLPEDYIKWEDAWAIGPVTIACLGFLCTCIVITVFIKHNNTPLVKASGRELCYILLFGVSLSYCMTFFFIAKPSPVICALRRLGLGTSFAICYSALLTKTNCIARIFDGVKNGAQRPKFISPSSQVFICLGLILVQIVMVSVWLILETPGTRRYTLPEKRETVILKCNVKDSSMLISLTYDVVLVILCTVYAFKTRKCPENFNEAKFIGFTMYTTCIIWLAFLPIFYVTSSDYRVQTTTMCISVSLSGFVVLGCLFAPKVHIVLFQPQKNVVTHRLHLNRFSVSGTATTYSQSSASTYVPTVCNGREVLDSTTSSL

O=S(=O)(O)c1cc(O)c(N=Nc2ccc(O)cc2O)c2ccccc12
IC50 [1]: 4.32 µM (active) | IC50 [2]: 20.5 µM (inactive) | AC50 [3]: 32.4 µM (active) | CC50 [4]: 100 µM (active) | AC50 [5]: 2.16 µM (active) | AC50 [6]: 7.35 µM (active) | AC50 [7]: 22.2 µM (active) | IC50 [8]: 28.8 µM (active)

O=C(c1ccc(C#Cc2ccc3c(c2)OCO3)cc1)N1CCCC(CO)C1 (stereo unspecified)
IC50 [9]: 7.26 µM (active)

Cc1ccc(/C=C(\CC(=O)O)c2nc3ccccc3s2)cc1[N+](=O)[O-]
AC50 [10]: 14.3 µM (active)

CCCCNc1cc(C)nc(NCc2ccccc2)n1
AC50 [11]: 31.1 µM (active) | AC50 [12]: 1.19 µM (active) | AC50 [13]: 7.51 µM (active) | AC50 [14]: 0.719 µM (active) | EC50 [15]: 3.96 µM (active) | EC50 [16]: 4.04 µM (active) | AC50 [17]: 13.8 µM (active) | IC50 [18]: > 20 µM (inactive) | AC50 [19]: 2.49 µM (active) | AC50 [20]: 10.6 µM (active) | AC50 [21]: 3.36 µM (active)
